Tests used:
[1] = target: T1, Cytoplasmic tyrosine-protein kinase BMX (Homo sapiens) (UniProt P51813); assay: Inhibition of human BMX at 500 nM by HotSpot assay relative to control
T1 sequence (whole entry): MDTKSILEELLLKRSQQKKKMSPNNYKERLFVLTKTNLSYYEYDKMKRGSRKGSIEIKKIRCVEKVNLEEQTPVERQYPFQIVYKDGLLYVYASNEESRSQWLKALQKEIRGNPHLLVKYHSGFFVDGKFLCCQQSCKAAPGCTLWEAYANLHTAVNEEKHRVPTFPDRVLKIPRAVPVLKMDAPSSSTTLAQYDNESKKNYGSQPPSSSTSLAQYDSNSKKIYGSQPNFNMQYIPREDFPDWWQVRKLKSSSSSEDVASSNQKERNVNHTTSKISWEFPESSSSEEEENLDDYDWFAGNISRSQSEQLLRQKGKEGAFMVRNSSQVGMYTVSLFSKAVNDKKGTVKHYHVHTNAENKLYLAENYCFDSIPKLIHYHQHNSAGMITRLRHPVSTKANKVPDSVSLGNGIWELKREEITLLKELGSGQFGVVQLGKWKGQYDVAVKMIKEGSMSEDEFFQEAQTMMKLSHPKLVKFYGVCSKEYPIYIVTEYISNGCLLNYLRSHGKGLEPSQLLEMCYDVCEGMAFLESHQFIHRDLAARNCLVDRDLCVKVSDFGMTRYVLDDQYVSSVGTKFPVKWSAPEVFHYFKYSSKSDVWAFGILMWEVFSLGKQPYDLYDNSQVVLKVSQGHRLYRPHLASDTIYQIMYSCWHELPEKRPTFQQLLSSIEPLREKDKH

[2] = target: Calcium/calmodulin-dependent protein kinase type 1B (Homo sapiens) (UniProt Q6P2M8); assay: Inhibition of human CAMK1b at 500 nM by HotSpot assay relative to control
Calcium/calmodulin-dependent protein kinase type 1B (Homo sapiens), sequence (Q6P2M8 whole entry): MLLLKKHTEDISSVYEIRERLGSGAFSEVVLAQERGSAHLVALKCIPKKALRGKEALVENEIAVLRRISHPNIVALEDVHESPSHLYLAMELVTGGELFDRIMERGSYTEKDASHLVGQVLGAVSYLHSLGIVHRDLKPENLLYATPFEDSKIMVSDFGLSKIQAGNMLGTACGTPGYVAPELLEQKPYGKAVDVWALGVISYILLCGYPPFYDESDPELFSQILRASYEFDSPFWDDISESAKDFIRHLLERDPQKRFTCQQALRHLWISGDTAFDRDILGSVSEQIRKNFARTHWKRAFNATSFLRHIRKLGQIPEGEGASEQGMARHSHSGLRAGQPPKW

[3] = target: Calcium/calmodulin-dependent protein kinase type II subunit delta (Homo sapiens) (UniProt Q13557); assay: Inhibition of human CAMK2d at 500 nM by HotSpot assay relative to control
Calcium/calmodulin-dependent protein kinase type II subunit delta (Homo sapiens), sequence (Q13557 whole entry): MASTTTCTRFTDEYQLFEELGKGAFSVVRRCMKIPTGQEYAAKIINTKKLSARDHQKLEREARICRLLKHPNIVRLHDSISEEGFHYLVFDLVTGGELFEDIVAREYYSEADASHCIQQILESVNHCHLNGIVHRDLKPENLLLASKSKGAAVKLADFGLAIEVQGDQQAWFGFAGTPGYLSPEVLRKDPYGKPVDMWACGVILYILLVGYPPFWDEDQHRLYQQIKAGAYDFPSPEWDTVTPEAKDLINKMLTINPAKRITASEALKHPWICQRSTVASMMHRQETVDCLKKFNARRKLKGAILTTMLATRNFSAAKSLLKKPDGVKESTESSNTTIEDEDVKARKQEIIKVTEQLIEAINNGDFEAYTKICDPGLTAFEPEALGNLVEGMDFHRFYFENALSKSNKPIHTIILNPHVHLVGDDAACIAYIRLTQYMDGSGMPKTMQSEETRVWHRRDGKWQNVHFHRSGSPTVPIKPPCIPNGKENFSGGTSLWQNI

[4] = target: Calcium/calmodulin-dependent protein kinase kinase 2 (Homo sapiens) (UniProt Q96RR4); assay: Inhibition of human CAMKK2 at 500 nM by HotSpot assay relative to control
Calcium/calmodulin-dependent protein kinase kinase 2 (Homo sapiens), sequence (Q96RR4 2-588 limits assumed): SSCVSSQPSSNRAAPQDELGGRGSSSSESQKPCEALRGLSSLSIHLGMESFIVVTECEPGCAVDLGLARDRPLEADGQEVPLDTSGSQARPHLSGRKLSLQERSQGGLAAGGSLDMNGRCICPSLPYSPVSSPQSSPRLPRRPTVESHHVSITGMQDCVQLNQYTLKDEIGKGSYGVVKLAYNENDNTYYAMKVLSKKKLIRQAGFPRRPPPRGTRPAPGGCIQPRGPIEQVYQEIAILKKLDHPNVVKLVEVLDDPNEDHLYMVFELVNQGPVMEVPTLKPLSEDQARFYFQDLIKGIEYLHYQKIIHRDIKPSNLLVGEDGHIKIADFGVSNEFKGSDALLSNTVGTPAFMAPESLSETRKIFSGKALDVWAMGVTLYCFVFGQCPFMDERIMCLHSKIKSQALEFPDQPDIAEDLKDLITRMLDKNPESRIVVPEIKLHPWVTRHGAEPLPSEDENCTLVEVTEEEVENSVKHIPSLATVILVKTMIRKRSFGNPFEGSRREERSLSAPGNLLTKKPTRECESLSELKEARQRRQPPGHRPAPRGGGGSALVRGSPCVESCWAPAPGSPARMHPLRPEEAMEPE

[5] = target: Death-associated protein kinase 2 (Homo sapiens) (UniProt Q9UIK4); assay: Inhibition of human DAPK2 at 500 nM by HotSpot assay relative to control
Death-associated protein kinase 2 (Homo sapiens), sequence (Q9UIK4 whole entry, looked up): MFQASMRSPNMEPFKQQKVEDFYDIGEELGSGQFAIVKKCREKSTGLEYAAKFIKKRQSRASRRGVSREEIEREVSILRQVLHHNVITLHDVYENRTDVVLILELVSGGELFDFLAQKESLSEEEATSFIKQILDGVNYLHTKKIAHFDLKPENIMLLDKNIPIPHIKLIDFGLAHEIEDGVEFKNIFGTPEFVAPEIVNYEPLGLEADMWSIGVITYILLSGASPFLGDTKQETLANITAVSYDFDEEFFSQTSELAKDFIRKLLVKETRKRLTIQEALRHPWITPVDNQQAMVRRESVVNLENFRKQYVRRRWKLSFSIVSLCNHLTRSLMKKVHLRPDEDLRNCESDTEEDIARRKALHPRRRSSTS

[6] = target: T2, Myotonin-protein kinase (Homo sapiens) (UniProt Q09013); assay: Inhibition of human DMPK at 500 nM by HotSpot assay relative to control
T2 sequence (whole entry): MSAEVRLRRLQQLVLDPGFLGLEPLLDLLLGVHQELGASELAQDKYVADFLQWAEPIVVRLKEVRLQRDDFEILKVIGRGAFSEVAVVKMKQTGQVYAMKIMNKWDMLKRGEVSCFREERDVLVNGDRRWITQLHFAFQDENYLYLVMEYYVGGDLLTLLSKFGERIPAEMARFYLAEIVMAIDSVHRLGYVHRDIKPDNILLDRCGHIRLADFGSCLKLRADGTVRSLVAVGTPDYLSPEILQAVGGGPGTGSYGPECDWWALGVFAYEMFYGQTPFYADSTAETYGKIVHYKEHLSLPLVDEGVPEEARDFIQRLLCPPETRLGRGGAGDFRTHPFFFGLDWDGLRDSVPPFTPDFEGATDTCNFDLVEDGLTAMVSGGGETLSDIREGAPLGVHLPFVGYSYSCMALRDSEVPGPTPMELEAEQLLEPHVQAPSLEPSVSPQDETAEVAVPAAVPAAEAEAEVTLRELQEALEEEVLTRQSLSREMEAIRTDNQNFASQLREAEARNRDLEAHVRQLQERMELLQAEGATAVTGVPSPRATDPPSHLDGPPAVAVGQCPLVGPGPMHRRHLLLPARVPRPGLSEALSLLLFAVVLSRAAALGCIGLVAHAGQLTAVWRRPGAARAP

[7] = target: T3, Serine/threonine-protein kinase 17A (Homo sapiens) (UniProt Q9UEE5); assay: Inhibition of human DRAK1 at 500 nM by HotSpot assay relative to control
T3 sequence (whole entry): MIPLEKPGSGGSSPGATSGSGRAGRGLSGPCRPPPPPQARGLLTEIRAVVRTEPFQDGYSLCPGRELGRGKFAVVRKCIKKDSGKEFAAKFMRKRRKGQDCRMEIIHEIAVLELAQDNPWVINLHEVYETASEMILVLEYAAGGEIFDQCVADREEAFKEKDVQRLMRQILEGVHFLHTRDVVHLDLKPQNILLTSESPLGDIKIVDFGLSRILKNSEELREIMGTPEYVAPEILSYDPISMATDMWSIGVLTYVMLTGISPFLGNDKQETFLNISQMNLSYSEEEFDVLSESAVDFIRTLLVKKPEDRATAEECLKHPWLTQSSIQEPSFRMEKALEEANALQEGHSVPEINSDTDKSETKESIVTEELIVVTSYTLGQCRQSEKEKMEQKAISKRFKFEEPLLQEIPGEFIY

[8] = target: Vascular endothelial growth factor receptor 1 (Homo sapiens) (UniProt P17948); assay: Inhibition of human FLT1 at 500 nM by HotSpot assay relative to control
Vascular endothelial growth factor receptor 1 (Homo sapiens), sequence (P17948 whole entry): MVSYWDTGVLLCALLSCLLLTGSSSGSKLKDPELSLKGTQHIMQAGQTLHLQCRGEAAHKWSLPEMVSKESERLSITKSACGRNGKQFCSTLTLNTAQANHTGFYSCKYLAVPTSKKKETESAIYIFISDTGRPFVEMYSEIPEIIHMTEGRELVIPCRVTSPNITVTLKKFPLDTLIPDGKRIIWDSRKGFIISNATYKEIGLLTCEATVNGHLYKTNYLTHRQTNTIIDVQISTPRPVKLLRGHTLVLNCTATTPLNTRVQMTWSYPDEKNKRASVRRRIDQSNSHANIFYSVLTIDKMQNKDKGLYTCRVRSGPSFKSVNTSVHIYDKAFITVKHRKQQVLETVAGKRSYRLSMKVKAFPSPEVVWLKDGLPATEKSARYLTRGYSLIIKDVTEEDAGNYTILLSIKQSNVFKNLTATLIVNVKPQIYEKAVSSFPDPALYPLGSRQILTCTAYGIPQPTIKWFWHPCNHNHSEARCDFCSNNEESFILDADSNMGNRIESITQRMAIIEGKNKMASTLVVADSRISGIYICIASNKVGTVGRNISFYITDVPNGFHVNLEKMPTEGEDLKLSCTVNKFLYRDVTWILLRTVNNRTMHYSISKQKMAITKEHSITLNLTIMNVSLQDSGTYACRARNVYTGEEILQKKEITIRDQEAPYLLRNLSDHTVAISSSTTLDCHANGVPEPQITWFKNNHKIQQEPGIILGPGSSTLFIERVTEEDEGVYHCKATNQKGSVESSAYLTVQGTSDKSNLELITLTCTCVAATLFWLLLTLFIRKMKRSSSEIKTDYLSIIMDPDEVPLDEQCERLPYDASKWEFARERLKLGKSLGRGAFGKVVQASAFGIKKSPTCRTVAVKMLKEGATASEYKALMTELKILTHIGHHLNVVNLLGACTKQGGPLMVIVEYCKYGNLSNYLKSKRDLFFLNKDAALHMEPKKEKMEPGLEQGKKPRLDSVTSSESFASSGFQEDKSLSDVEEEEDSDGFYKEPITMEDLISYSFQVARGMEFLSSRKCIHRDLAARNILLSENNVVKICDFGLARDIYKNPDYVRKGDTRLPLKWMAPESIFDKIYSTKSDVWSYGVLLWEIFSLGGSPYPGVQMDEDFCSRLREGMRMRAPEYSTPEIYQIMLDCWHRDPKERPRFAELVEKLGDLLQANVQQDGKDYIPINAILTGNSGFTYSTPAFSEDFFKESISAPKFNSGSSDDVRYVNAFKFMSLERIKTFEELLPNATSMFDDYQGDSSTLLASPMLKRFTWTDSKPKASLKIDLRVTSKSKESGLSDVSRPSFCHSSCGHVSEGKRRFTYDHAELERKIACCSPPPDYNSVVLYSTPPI

[9] = target: Tyrosine-protein kinase JAK1 (Homo sapiens) (UniProt P23458); assay: Inhibition of human JAK1 at 500 nM by HotSpot assay relative to control
Tyrosine-protein kinase JAK1 (Homo sapiens), sequence (P23458 whole entry): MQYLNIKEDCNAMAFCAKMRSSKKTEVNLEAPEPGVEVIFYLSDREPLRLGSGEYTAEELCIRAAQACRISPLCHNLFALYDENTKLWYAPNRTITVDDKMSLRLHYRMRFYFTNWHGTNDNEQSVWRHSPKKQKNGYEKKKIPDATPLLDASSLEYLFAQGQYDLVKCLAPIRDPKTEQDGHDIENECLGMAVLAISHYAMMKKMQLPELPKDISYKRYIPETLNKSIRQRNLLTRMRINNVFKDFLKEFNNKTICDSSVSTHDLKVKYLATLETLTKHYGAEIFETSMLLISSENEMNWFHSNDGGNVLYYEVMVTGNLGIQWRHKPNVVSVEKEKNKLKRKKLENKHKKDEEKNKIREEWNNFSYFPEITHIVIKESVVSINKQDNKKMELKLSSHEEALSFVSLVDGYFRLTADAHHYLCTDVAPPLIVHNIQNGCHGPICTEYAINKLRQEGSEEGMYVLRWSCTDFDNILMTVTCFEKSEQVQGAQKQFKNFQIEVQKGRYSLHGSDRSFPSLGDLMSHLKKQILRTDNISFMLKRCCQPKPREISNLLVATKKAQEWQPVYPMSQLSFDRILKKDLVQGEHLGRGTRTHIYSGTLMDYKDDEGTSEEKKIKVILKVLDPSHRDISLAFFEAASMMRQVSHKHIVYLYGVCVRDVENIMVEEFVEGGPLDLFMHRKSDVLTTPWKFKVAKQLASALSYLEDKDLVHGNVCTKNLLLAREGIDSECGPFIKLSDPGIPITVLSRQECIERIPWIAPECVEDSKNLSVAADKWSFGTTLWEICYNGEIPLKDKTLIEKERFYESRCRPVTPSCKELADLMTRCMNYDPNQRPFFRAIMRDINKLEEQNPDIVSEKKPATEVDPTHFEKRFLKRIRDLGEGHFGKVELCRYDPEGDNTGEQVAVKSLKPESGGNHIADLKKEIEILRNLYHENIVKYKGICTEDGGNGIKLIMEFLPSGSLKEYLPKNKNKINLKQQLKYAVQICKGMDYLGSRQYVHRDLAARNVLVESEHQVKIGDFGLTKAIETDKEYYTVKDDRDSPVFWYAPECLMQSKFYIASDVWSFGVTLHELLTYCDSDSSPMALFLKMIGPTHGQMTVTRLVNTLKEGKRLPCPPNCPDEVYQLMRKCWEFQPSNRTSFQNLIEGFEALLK

[10] = target: MAP kinase-activated protein kinase 2 (Homo sapiens) (UniProt P49137); assay: Inhibition of human MAPKAPK2 at 500 nM by HotSpot assay relative to control
MAP kinase-activated protein kinase 2 (Homo sapiens), sequence (P49137 whole entry, looked up): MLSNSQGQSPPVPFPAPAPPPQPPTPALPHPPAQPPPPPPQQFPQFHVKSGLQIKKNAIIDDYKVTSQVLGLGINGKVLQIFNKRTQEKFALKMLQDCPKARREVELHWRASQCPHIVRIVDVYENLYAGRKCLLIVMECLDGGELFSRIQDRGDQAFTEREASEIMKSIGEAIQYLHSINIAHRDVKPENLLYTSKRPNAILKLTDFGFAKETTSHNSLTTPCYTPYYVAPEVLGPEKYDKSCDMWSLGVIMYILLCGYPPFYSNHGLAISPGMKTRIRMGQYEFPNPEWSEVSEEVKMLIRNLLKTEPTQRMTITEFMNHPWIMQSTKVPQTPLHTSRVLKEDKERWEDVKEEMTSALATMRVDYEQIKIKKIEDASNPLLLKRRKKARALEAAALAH

[11] = target: T4, Dual specificity mitogen-activated protein kinase kinase 6 (Homo sapiens) (UniProt P52564); assay: Inhibition of human MKK6 at 500 nM by HotSpot assay relative to control
T4 sequence (whole entry): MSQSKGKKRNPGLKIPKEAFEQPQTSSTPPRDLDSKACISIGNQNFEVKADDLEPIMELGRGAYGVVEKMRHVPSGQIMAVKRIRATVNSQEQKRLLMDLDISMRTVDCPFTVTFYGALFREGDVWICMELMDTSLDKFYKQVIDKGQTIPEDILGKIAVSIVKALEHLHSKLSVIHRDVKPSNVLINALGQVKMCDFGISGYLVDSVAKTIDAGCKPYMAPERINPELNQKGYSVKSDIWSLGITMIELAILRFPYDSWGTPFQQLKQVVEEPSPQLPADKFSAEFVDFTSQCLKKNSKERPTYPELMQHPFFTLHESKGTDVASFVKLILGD

[12] = target: Serine/threonine-protein kinase Nek6 (Homo sapiens) (UniProt Q9HC98); assay: Inhibition of human NEK6 at 500 nM by HotSpot assay relative to control
Serine/threonine-protein kinase Nek6 (Homo sapiens), sequence (Q9HC98 whole entry): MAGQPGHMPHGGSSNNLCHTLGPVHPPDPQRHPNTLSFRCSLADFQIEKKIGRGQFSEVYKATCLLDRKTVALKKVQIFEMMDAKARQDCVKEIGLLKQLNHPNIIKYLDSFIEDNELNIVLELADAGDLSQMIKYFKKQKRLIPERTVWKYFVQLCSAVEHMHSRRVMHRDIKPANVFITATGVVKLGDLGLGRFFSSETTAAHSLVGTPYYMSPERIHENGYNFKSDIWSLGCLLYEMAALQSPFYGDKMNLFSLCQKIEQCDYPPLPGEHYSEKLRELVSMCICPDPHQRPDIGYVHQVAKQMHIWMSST

[13] = target: Serine/threonine-protein kinase SIK2 (Homo sapiens) (UniProt Q9H0K1); assay: Inhibition of human SIK2 at 500 nM by HotSpot assay relative to control
[14] = target: Wee1-like protein kinase (Homo sapiens) (UniProt P30291); assay: Inhibition of human WEE1 at 500 nM by HotSpot assay relative to control

Row | SMILES | inhibition [1] [%] | inhibition [2] [%] | inhibition [3] [%] | inhibition [4] [%] | inhibition [5] [%] | inhibition [6] [%] | inhibition [7] [%] | inhibition [8] [%] | inhibition [9] [%] | inhibition [10] [%] | inhibition [11] [%] | inhibition [12] [%] | inhibition [13] [%] | inhibition [14] [%]
1 | Oc1n[nH]c2nnc(-c3c(-c4ccccc4)nn4ccccc34)cc12 | 6.43 | -0.91 | 2.55 | 2.27 | -0.84 | -3.39 | -1.05 | 0.38 | -1.98 | -5.6 | 8.78 | 3.5 | 14.5 | 20.8
2 | Nc1n[nH]c2nnc(-c3c(-c4ccccc4)nn4ccccc34)cc12 | 15.6 | 0.39 | 3.52 | -1.27 | -2.75 | -2.61 | 0.09 | 3.34 | -3.59 | -5.26 | 9.06 | 4.45 | 6.36 | 7.57

Source: ChEMBL document CHEMBL5653615 (J Biol Chem, 2013)
